In EP4722207A1, “OXOISOINDOLINYL-SUBSTITUTED TETRAHYDROPYRIMIDINEDIONE DERIVATIVE AND USE THEREOF” (Gluetacs Therapeutics (Shanghai) Co., Ltd., priority 2023, dated 2024):

Key:
[1] = molecular target: T1, GSPT1 (Homo sapiens, UniProt P15170+Q96SW2); experiment: Western-blot assay, substrate protein degradation in hPBMCs: GSPT1; type: cell-based; conditions: compounds at 50 nM and 500 nM, 24 hours
T1 construct: effects of the compounds of the present disclosure on the expression of target proteins in cells; endogenous in cells; host or cells: human PBMCs (hPBMCs)

[2] = molecular target: T2, IKZF2 (Homo sapiens, UniProt Q96SW2+Q9UKS7); experiment: Western-blot assay, substrate protein degradation in hPBMCs: IKZF2; type: cell-based; conditions: compounds at 50 nM and 500 nM, 24 hours
T2 construct: effects of the compounds of the present disclosure on the expression of target proteins in cells; endogenous in cells; host or cells: human PBMCs (hPBMCs)

[3] = molecular target: T3, IKZF1 (Homo sapiens, UniProt Q13422+Q96SW2); experiment: Western-blot assay, substrate protein degradation in hPBMCs: IKZF1; type: cell-based; conditions: compounds at 50 nM and 500 nM, 24 hours
T3 construct: effects of the compounds of the present disclosure on the expression of target proteins in cells; endogenous in cells; host or cells: human PBMCs (hPBMCs)

[4] = molecular target: T4, WEE1 (Homo sapiens, UniProt P30291+Q96SW2); experiment: Western-blot assay, substrate protein degradation in hPBMCs: WEE1; type: cell-based; conditions: compounds at 50 nM and 500 nM, 24 hours
T4 construct: effects of the compounds of the present disclosure on the expression of target proteins in cells; endogenous in cells; host or cells: human PBMCs (hPBMCs)

[5] = test system: Jurkat; experiment: Cell viability assay (CellTiter-Meiluncell Luminescent), tumor cell proliferation, Jurkat; conditions: Homo sapiens, 96 h, read-out: inhibitory activity (IC50, nM) against tumor cells proliferation, Jurkat
Description: (§1) On the following day, the test compounds of the present disclosure were subjected to serial dilution. […] Subsequently, 0.5 µL of the test compound dilution was transferred into the 96-well plate containing the cells, with each well containing 100 µL of cell culture medium. […] Into the 96-well plate, the diluted test compounds and corresponding detection reagents were added, resulting in final test compound concentrations of 500 nM and 10 nM, respectively.
(§2) After the cells were treated with the compounds of the present disclosure for a specified period, the cell viability assay reagent was added to the culture medium according to the kit's instructions to determine cell viability. […] All controls were treated using the same procedure as the compounds of the present disclosure. The growth inhibition curves for the compounds of the present disclosure were plotted using Prism GraphPad software, and the IC50 values were calculated therefrom.

[6] = molecular target: T5, CK1α (Homo sapiens, UniProt P48729+Q96SW2); experiment: Western-blot assay, substrate protein degradation in hPBMCs: CK1α; type: cell-based; conditions: compounds at 50 nM and 500 nM, 24 hours
T5 construct: effects of the compounds of the present disclosure on the expression of target proteins in cells; endogenous in cells; host or cells: human PBMCs (hPBMCs)

[7] = test system: MGC803; experiment: Cell viability assay (CellTiter-Meiluncell Luminescent), tumor cell proliferation, MGC803; conditions: Homo sapiens, MGC-803, 96 h, read-out: inhibitory activity (IC50, nM) against tumor cells proliferation, MGC803
Description: as §1, §2

[8] = test system: MM.1S; experiment: Cell viability assay (CellTiter-Meiluncell Luminescent), tumor cell proliferation, MM.1S; conditions: Homo sapiens, MM1.S, 96 h, read-out: inhibitory activity (IC50, nM) against tumor cells proliferation, MM.1S
[9] = molecular target: T6, IKZF3 (Homo sapiens, UniProt Q96SW2+Q9UKT9); experiment: Western-blot assay, substrate protein degradation in hPBMCs: IKZF3; type: cell-based; conditions: compounds at 50 nM and 500 nM, 24 hours
T6 construct: effects of the compounds of the present disclosure on the expression of target proteins in cells; endogenous in cells; host or cells: human PBMCs (hPBMCs)
T6 sequence (Q9UKT9 whole entry): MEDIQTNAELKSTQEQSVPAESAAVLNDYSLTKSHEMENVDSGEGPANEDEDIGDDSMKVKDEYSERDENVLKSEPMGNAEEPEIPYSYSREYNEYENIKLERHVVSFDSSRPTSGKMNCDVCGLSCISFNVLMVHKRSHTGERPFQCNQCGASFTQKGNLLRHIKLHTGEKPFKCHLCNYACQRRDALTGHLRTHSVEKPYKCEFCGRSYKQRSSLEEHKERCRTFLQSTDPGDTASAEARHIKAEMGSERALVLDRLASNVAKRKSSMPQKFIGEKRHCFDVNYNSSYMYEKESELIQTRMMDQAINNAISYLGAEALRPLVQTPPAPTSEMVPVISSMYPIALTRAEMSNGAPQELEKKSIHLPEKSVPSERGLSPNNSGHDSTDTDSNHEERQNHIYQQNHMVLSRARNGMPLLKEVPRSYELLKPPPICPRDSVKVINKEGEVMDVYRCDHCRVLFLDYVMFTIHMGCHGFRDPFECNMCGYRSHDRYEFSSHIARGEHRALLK
T6 sequence (Q96SW2 whole entry): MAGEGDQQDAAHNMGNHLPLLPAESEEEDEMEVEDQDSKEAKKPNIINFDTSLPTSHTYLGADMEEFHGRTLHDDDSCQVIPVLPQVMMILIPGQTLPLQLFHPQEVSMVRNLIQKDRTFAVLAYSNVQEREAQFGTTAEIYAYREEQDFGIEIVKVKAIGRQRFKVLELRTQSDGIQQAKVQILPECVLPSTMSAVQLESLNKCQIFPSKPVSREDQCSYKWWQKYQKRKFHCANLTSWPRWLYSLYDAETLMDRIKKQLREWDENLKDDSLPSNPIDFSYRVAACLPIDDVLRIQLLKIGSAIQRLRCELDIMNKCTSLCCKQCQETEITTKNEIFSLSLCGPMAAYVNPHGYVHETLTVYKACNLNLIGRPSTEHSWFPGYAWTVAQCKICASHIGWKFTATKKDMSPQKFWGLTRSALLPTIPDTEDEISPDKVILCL
T6 sequence (Q16531 whole entry partner): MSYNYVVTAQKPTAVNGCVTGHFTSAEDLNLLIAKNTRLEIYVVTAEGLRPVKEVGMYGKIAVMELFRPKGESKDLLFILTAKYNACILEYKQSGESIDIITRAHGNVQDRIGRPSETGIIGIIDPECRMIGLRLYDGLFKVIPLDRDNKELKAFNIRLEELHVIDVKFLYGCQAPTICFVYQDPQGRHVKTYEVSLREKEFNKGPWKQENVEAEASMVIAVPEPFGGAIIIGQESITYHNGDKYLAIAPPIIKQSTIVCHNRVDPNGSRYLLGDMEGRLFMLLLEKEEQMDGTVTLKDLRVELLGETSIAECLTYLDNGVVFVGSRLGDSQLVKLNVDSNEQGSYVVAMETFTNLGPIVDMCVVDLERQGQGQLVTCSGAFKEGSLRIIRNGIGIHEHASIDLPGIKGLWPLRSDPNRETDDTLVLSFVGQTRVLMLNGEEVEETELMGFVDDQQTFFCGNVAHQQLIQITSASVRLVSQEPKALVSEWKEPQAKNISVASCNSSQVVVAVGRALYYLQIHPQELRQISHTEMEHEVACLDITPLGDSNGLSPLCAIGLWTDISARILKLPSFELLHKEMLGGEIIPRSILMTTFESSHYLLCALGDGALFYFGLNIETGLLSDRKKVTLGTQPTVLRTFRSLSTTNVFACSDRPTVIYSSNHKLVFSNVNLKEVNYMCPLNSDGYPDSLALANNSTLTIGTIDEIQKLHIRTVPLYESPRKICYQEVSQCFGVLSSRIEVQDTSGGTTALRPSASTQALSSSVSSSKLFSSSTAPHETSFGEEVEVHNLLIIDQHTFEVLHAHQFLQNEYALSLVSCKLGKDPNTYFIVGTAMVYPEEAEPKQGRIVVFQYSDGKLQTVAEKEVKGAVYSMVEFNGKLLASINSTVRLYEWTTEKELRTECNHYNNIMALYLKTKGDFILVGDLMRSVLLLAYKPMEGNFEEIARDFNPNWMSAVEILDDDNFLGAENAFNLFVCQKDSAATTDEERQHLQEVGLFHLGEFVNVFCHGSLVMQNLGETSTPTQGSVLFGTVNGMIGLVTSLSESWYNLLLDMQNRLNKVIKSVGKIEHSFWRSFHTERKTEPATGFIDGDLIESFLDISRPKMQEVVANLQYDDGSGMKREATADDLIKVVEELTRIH

T5 sequence (P48729 whole entry): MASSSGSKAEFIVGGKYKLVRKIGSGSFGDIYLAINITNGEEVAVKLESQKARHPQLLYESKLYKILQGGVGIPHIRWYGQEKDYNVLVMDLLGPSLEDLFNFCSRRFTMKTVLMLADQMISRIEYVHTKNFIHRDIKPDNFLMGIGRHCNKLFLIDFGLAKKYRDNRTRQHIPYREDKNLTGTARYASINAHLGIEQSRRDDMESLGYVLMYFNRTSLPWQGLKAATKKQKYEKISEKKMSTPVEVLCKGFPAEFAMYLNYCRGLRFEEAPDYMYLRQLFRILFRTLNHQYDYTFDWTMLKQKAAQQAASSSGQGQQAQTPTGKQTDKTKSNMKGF
T5 sequence (Q96SW2 whole entry): as the sequence (Q96SW2 whole entry) above
T5 sequence (Q16531 whole entry partner): as the sequence (Q16531 whole entry partner) above
T3 sequence (Q13422 whole entry): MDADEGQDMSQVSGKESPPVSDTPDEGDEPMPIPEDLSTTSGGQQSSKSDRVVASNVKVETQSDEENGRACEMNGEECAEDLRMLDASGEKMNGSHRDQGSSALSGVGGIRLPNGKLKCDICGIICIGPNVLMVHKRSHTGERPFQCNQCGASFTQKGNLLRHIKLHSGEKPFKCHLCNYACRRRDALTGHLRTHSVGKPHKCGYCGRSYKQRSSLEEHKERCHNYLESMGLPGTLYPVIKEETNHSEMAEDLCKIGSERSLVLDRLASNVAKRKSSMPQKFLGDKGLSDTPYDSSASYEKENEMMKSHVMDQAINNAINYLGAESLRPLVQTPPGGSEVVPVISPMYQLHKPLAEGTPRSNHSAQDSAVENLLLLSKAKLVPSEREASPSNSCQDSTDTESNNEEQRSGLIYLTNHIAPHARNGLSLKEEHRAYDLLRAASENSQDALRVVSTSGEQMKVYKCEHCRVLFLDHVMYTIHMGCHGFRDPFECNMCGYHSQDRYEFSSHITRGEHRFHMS
T3 sequence (Q96SW2 whole entry): as the sequence (Q96SW2 whole entry) above
T3 sequence (Q16531 whole entry partner): as the sequence (Q16531 whole entry partner) above
T2 sequence (Q9UKS7 whole entry): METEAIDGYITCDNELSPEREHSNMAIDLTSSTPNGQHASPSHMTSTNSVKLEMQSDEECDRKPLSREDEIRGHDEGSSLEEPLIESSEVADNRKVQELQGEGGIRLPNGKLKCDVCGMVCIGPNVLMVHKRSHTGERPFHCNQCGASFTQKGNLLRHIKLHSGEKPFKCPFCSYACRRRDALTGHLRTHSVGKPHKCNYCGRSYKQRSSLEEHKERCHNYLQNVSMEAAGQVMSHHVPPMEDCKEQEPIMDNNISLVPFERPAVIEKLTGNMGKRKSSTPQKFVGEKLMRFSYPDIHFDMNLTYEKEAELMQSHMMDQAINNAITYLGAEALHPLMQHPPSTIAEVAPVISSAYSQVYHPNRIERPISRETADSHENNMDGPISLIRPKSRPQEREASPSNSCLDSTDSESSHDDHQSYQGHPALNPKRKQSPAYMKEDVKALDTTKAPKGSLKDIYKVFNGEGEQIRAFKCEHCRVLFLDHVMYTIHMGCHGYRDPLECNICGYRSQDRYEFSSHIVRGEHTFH
T2 sequence (Q96SW2 whole entry): as the sequence (Q96SW2 whole entry) above
T2 sequence (Q16531 whole entry partner): as the sequence (Q16531 whole entry partner) above
T1 sequence (P15170 whole entry): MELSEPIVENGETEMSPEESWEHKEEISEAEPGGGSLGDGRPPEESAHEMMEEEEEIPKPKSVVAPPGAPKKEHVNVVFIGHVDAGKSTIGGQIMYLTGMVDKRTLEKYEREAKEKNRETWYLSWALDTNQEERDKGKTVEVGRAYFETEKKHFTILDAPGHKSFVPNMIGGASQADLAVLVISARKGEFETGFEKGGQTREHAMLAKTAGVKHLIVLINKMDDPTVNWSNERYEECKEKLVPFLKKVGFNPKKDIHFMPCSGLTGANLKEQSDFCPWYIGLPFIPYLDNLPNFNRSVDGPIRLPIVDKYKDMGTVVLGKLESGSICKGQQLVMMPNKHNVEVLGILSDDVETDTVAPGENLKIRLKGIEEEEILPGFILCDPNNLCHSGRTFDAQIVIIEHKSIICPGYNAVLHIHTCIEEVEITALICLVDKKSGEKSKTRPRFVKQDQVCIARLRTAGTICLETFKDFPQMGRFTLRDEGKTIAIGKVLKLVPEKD
T1 sequence (Q96SW2 whole entry): as the sequence (Q96SW2 whole entry) above
T1 sequence (Q16531 whole entry partner): as the sequence (Q16531 whole entry partner) above

IC50 [5]: 100 to 300 nM
IC50 [7]: 100 to 300 nM
IC50 [8]: 10 to 50 nM
Structure (SMILES): O=C1CCN(N2Cc3cc(CN4CCC(Nc5ccccc5-c5ccc(Cl)cc5)CC4)ccc3C2=O)C(=O)N1 [GT-04943, 1-(5-((4-((4'-chloro-[1,1'-biphenyl]-2-yl)amino)piperidin-1-yl)methyl)-1-oxoisoindolin-2-yl)dihydropyrimidine-2,4(1H,3H)-dione]
GSPT1 substrate protein remaining % [1]: A ("A" is defined as 0% ≤ substrate protein remaining % ≤ 80%)
IKZF2 substrate protein remaining % [2]: A ("A" is defined as 0% ≤ substrate protein remaining % ≤ 80%)
IKZF1 substrate protein remaining % [3]: A ("A" is defined as 0% ≤ substrate protein remaining % ≤ 80%)
WEE1 substrate protein remaining % [4]: A ("A" is defined as 0% ≤ substrate protein remaining % ≤ 80%)
CK1α substrate protein remaining % [6]: B ("B" is defined as 80%< substrate protein remaining %≤ 100%)
IKZF3 substrate protein remaining % [9]: A ("A" is defined as 0% ≤ substrate protein remaining % ≤ 80%)
